In ChEMBL document CHEMBL1132735, “Synthesis and biological evaluation of L- and D-configuration 1,3-dioxolane 5-azacytosine and 6-azathymine nucleosides” (Bioorg Med Chem Lett, 2000):

Tests used:
Vero = assay: Concentration required to inhibit 50% of host cell replication in Vero cell used against HSV-1 and HSV-2 studies; type: functional, cell-based; conditions: Chlorocebus sabaeus
Human alphaherpesvirus 1 = assay: Concentration required to inhibit 50% of HSV-1 replication; type: functional, organism-based
Human alphaherpesvirus 2 = assay: Concentration required to inhibit 50% of HSV-2 replication; type: functional, organism-based
[1] = system: Human immunodeficiency virus 1; assay: Concentration required to inhibit 50% of HIV-IIIB virus replication; type: functional, organism-based
B16-F10 = assay: Concentration required to inhibit 50% of B16F10 cell replication, tested up to a concentration of 100 uM; type: functional, cell-based; conditions: Mus musculus
HepG2 = assay: Concentration required to inhibit 50% of host cell replication in human hepatoma (2.2.15) cells used against HBV studies; type: functional, cell-based
MT2 = assay: Concentration required to inhibit 50% of host cell replication in MT-2 cells used against HIV studies; type: functional, cell-based; conditions: Homo sapiens
L1210 = assay: Concentration required to inhibit 50% of leukemia L1210 cell replication, tested up to a concentration of 100 uM; type: functional, cell-based; conditions: Mus musculus
Hepatitis B virus = assay: Concentration required to inhibit 50% of Hepatitis B virus replication; type: functional, organism-based
CCRF-CEM = assay: Concentration required to inhibit 50% of CCRF-CEM cell replication, tested up to a concentration of 100 uM; type: functional, cell-based; conditions: Homo sapiens
P388 = assay: Concentration required to inhibit 50% of P388 cell replication, tested up to a concentration of 100 uM; type: functional, cell-based; conditions: Mus musculus

Compound | IC50 (Vero) [µM] | EC50 (Human alphaherpesvirus 1) [µM] | EC50 (Human alphaherpesvirus 2) [µM] | EC50 [1] [µM] | EC50 (B16-F10) [µM] | IC50 (HepG2) [µM] | IC50 (MT2) [µM] | EC50 (L1210) [µM] | EC50 (Hepatitis B virus) [µM] | EC50 (CCRF-CEM) [µM] | EC50 (P388) [µM]
Nc1nc2c(ncn2COCCO)c(=O)[nH]1 [ACYCLOVIR] | > 50 | 23 | 35 | – | – | – | – | – | – | – | –
Cc1nn(C[C@H]2CO[C@@H](CO)O2)c(=O)[nH]c1=O | > 50 | > 50 | > 50 | > 100 | > 100 | > 50 | > 100 | > 100 | > 20 | > 100 | > 100
Nc1ncn(C[C@H]2CO[C@@H](CO)O2)c(=O)n1 | 30 | > 50 | > 50 | 1 | 60 | 27 | 32 | 90 | 6.3 | 80 | 70
Cc1nn(C[C@@H]2CO[C@@H](CO)O2)c(=O)[nH]c1=O | > 50 | > 50 | > 50 | > 100 | > 100 | > 50 | > 100 | > 100 | > 20 | > 100 | > 100
Nc1ncn(C[C@@H]2CO[C@@H](CO)O2)c(=O)n1 | 28 | > 50 | > 50 | > 100 | 80 | 25 | 27 | 80 | > 20 | 70 | 70
Nc1ccn([C@H]2CC[C@@H](CO)O2)c(=O)n1 [ZALCITABINE] | – | – | – | – | – | > 37 | – | – | 2.3 | – | –
Nc1ncn(C[C@@H]2CO[C@H](CO)O2)c(=O)n1 | 12 | 32 | > 50 | 5 | 70 | 17 | 17 | 70 | 0.6 | 20 | 90
Cc1cn([C@H]2C=C[C@@H](CO)O2)c(=O)[nH]c1=O [STAVUDINE] | – | – | – | 0.6 | – | – | > 100 | – | > 20 | – | –
Cc1nn(C[C@@H]2CO[C@H](CO)O2)c(=O)[nH]c1=O | > 50 | > 50 | > 50 | > 100 | > 100 | > 50 | > 100 | > 100 | > 20 | > 100 | > 100
Cc1nn(C[C@H]2CO[C@H](CO)O2)c(=O)[nH]c1=O | > 50 | > 50 | > 50 | > 100 | > 100 | > 50 | > 100 | > 100 | > 20 | > 100 | > 100
Nc1ncn(C[C@H]2CO[C@H](CO)O2)c(=O)n1 | 31 | > 50 | > 50 | > 100 | 70 | 17 | 18 | 70 | 6.5 | 30 | 65
